Laboratory results published in PMC6591251, “Discovery of potent necroptosis inhibitors targeting RIPK1 kinase activity for the treatment of inflammatory disorder and cancer metastasis” (Cell Death & Disease, 2019).
Like-named read-outs stand apart in the source and are kept apart here.

Assays:
L929 cells = assay: TNF-induced necroptosis, cell viability by ATP levels; assay type: cell-based; details: Mus musculus, L929, 24 h
Description: Necroptosis is tightly regulated by RIP kinases including RIPK1 and RIPK3. To develop new necroptosis inhibitors, we screened a small-molecule library of around 240 potential kinase inhibitors that were designed with novel structures to affect the ATP-binding pocket of protein kinases. Human colon cancer HT-29 cells were treated with these compounds for […], followed by treatment with necroptotic stimuli (TNFα, Smac mimetic, and z-VAD) that are known to activate TNF-mediated necroptosis. After 48 h, cell viability was analyzed by monitoring ATP levels.
Fig. 1 PK6 efficiently blocks TNF-α induced necroptosis in both human and mouse cells. a HT-29 cells cultured in 96-well plates were pretreated with the indicated compounds (10 μM) from a library consisting of ~240 compounds that we designed with novel structures for 1 h and subsequently treated with 40 ng/ml TNF-α (T), 100 nM Smac mimetic (S), and the caspase inhibitor 20 μM z-VAD(Z) for 48 h. Cell viability was assessed by measuring ATP levels. Data are represented as the mean ± standard deviation of duplicates. b Chemical structure of PK6. c Dose response curve and EC50 ± SD value for PK6 in TNF-α induced necroptosis in HT-29 cells. Cells were pretreated with indicated concentrations of PK6 for 1 h prior to the treatment with T (40 ng/ml), S (100 nM), and Z (20 μM) for 48 h. Cell viability was assessed by measuring ATP levels. d U937 cells were pretreated with indicated concentrations of PK6 for 1 h followed by the treatment with T (40 ng/ml), S (100 nM), and Z (20 μM) for 24 h. e MEF cells were pretreated with indicated concentrations of PK6 for 1 h followed by the treatment with T (40 ng/ml), S (100 nM), and Z (20 μM) for 24 h. f L929 cells were pretreated with indicated concentrations of PK6 for 1 h prior to the treatment with S (100 nM) and Z (20 μM) for 24 h.
Fig. 2 Chemical optimization of PK6 leads to improvements in anti-necroptotic activity. a, b The effects of the indicated compounds on cell viability were examined in HT-29 cells (a) and L929 cells (b). HT-29 cells were treated as indicate for 48 h and L929 cells for 24 h. Cell viability was assessed by measuring ATP levels. Data are represented as the mean ± standard deviation of triplicates. c Structure and EC50 ± SD value of each compound are shown in the table. EC50 values are the average of at least two independent determinations. d Lead optimization of PK6 TEXT PRINTED IN THE PICTURE: (c) PK6: EC50(nM) HT-29: 1200±53; EC50(nM) L929: 760±26 | (c) PK67: EC50(nM) HT-29: 250±6.3; EC50(nM) L929: 130±6.8 | (c) PK81: EC50(nM) HT-29: 120±7.6; EC50(nM) L929: 20±0.98 | (c) PK84: EC50(nM) HT-29: 97±6.7; EC50(nM) L929: 45±2.1 | (c) PK93: EC50(nM) HT-29: 130±36; EC50(nM) L929: 30±7.4 | (c) PK86: EC50(nM) HT-29: 73±3.9; EC50(nM) L929: 15±1.0 | (c) PK68: EC50(nM) HT-29: 23±1.4; EC50(nM) L929: 13±0.85
(§1) The cell viability was analyzed by using the CellTiter-Glo Luminescent Cell Viability Assay kit following the manufacturer’s instructions (Promega). Luminescence was measured with SpectraMax i3x (Molecular Devices).

[1] = system: rat bone marrow-derived macrophages; assay: TNFR- and TLR-mediated necroptosis; assay type: cell-based; details: rat BMDM; PK6 10 μM, PK68 100 nM; 24–30 h
From the text: In addition to TNF-induced necroptosis, it is known that TLR3 or TLR4 activation can also trigger necroptosis. We further evaluated the effects of PK6 and PK68 on TLR3- and TLR4-mediated necroptosis induced by poly(I:C)/z-VAD and LPS/z-VAD, respectively. […] To investigate the molecular mechanism of PK series-mediated necroptosis inhibition, we examined the effects of these compounds on the major steps of necroptotic signaling, including activation of RIPK1, RIPK3, and MLKL. […] It has been shown previously that RIPK3 activation leads to the formation of RIPK3 puncta during necroptosis.
Fig. 3 PK6 and PK68 block cellular activation of RIPK1, RIPK3, and MLKL upon necroptotic stimuli. a, b Bone marrow-derived macrophages from C57BL/6 mice or rat were pretreated with DMSO, PK6(10 μM), or PK68 (100 nM) for 1 h and subsequently treated with indicated stimuli for 24–30 h. Cell viability was determined by measuring ATP levels. L, LPS (20 ng/ml); P, poly(I:C) (50 μg/ml); S (100 nM); Z (10 μM). […] The distribution of RIPK3 was detected by immunofluorescence. *P < 0.05. **P < 0.01. ***P < 0.001 […]
as §1

For CC(=O)Nc1nc2ccc(-c3cnc(Cl)c(NC(=O)Cc4ccccc4)c3)cc2s1 [PK6, N-(5-(2-acetamidobenzo[d]thiazol-6-yl)-2-chloropyridin-3-yl)-2-phenylacetamide], which EC50 (L929 cells; S 100 nM and Z 20 μM, read-out: EC50, TNF-induced necroptosis) is on record?
Its EC50 is ~760 nM.

What about the “TNFR- and TLR-mediated necroptosis” value [1] of the same compound?
Its value is “showed inhibitory effects”.

CC(=O)Nc1nc2ccc(-c3cnc(C)c(NC(=O)OC4CCCCC4)c3)cc2s1 [PK68, cyclohexyl (5-(2-acetamidobenzo[d]thiazol-6-yl)-2-methylpyridin-3-yl)carbamate] was tested. Which EC50 (L929 cells; read-out: EC50(nM) L929) did it give?
Its EC50 is 13 nM.

And the “TNFR- and TLR-mediated necroptosis” value [1]?
Its value is “showed inhibitory effects”.
